According to US6639023B1, “Fluorophenyl resin compounds” (Aventis Pharmaceuticals Inc., priority 1998, dated 2003):
pIC50: −log10 of the molar value.

Biological target: Factor Xa (Homo sapiens, UniProt P00742)
Assay: IC50 against Factor Xa
Assay type: biochemical

Chain of Factor Xa (P00742 235-488 limits assumed): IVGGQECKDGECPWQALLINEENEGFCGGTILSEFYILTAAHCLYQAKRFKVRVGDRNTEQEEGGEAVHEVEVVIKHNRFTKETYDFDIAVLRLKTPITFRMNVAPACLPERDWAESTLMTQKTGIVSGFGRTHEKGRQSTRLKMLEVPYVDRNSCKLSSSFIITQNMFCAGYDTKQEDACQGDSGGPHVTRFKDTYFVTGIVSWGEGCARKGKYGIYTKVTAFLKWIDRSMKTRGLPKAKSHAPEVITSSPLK
Chain of Factor Xa (P00742 41-179 partner limits assumed): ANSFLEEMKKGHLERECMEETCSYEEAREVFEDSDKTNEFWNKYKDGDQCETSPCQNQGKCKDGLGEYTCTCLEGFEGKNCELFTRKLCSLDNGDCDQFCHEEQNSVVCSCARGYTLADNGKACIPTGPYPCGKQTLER

O=C1[C@@H](NS(=O)(=O)c2cc3ccc(Cl)cc3s2)CCN1Cc1cc2ncccc2[nH]1 [Example 24]
pIC50: > 6.30
